Reference: patent publication US4585861A, “1,2,4-triazine derivatives” (Eli Lilly and Company, priority 1985, dated 1986)
Where a name gives a salt, the structure may show the parent alone.

Columns and labels:
GABA receptor = experiment: In vitro activation of GABA binding ([3H]GABA, Triton X-100 treated membrane protein); details: average of one or more tests, read-out: SC50 GABA (nanomolar concentration producing a 50% increase in binding)
Experimental: (§1) The novel compounds of this invention were examined for their in vitro ability to activate GABA and benzodiazepine (BZ) binding. To measure the effect of a compound on GABA binding, Triton X-100 (octylphenoxy polyethoxyethanol, Rohm and Haas Co.) treated membrane protein was incubated in the presence of the compound and [^3 H]GABA as detailed by Horng and Wong, J. Neurochemistry, 32 (5), 1379 (1979). To examine BZ binding, H-flunirazepam and the compounds were incubated with native membrane protein as reported by Wong, et al, Brain Res. Bull., 5 (Suppl. 2), 853 (1980). The results in Table 1 are the nanomolar concentrations of compounds (by Example No.) which produced a 50 percent increase (SC50) in GABA or BZ binding. Each result is the average of one or more tests.

benzodiazepine receptor = experiment: In vitro activation of benzodiazepine (BZ) binding (flunirazepam, native membrane protein); details: average of one or more tests, read-out: SC50 BZ (nanomolar concentration producing a 50% increase in binding)
Experimental: as §1

| EC50 (GABA receptor) [nM] | EC50 (benzodiazepine receptor) [nM] | Compound |
| --- | --- | --- |
| > 10000 | 3500 | CCc1ccc(-c2nnc(N3CCC(O)CC3)nc2-c2ccc(CC)cc2)cc1 [Example 8, 1-[5,6-bis(4-ethylphenyl)-1,2,4-triazin-3-yl]-4-piperidinol] |
| > 10000 | > 10000 | Cc1ccccc1-c1nnc(N2CCC(O)CC2)nc1-c1ccccc1C [Example 9, 1-[5,6-bis(2-methylphenyl)-1,2,4-triazin-3-yl]-4-piperidinol] |
| – | > 10000 | Cc1cccc(-c2nnc(N3CCC(O)CC3)nc2-c2cccc(C)c2)c1 [Example 10, 1-[5,6-bis(3-methylphenyl)-1,2,4-triazin-3-yl]-4-piperidinol] |
| 110 | 14 | Cc1ccc(-c2nnc(N3CCC(OC(=O)C(C)(C)C)CC3)nc2-c2ccc(C)cc2)cc1 [Example 16, 1-[5,6-bis(4-methylphenyl)-1,2,4-triazin-3-yl]-4-piperidinol, pivaloate (ester)] |
| 43 | 60 | CC(=O)OC1CCN(c2nnc(-c3ccc(C)cc3)c(-c3ccc(C)cc3)n2)C1 (stereo not shown) [Example 19, 1-[5,6-bis(4-methylphenyl)-1,2,4-triazin-3-yl]-3-pyrrolidinol, acetate (ester)] |
| 875 | 1140 | Cc1ccc(-c2nnc(N3CCOCC3)nc2-c2ccc(C)cc2)cc1 [Example 22, 3-morpholino-5,6-bis(4-methylphenyl)-1,2,4-triazine] |
| 10 | 21 | CCOC1CCN(c2nnc(-c3ccc(C)cc3)c(-c3ccc(C)cc3)n2)CC1 [Example 27, 3-(4-ethoxy-1-piperidinyl)-5,6-bis(4-methylphenyl)-1,2,4-triazine] |
| 100 | 24 | CNC(=O)OC1CCN(c2nnc(-c3ccc(C)cc3)c(-c3ccc(C)cc3)n2)CC1 [Example 30, 1-[5,6-bis(4-methylphenyl)-1,2,4-triazin-3-yl]-4-piperidinol, N-methyl carbamate (ester)] |
| 1 | 3 | Cc1ccc(-c2nnc(N3CCC(OC(=O)N(C)C)CC3)nc2-c2ccc(C)cc2)cc1 [Example 31] |
| 13 | 10 | Cc1ccc(-c2nnc(N3CCC(OC=O)CC3)nc2-c2ccc(C)cc2)cc1 [Example 34, 1-[5,6-bis(4-methylphenyl)-1,2,4-triazin-3-yl]-4-piperidinol, formate (ester)] |
| 800 | 8500 | Cc1ccc(-c2nnc(N3CCC(C(N)=O)CC3)nc2-c2ccc(C)cc2)cc1 [Example 36, 1-[5,6-bis(4-methylphenyl)-1,2,4-triazin-3-yl]-4-piperidinecarboxamide] |
| 160 | 520 | Cc1ccc(-c2nnc(N3CCC(CO)CC3)nc2-c2ccc(C)cc2)cc1 [Example 37, 1-[5,6-bis(4-methylphenyl)-1,2,4-triazin-3-yl]-4-piperidinemethanol] |
| 1300 | 1600 | Cc1ccc(-c2nnc(N3CCC(=NO)CC3)nc2-c2ccc(C)cc2)cc1 [Example 40, 1-[5,6-bis(4-methylphenyl)-1,2,4-triazin-3-yl]-4-piperidinone, oxime] |
